The source of these data is US7749709B2, “SOCS-1 gene methylation in cancer” (The Johns Hopkins University School of Medicine, priority 2001, dated 2010).

In one data set the test system is SOCS-1 gene expression. Description: Semi-quantitative RT-PCR of SOCS-1 expression in MM cell lines. The following applies: 1 μM for 96 hr. It counts as cell-based, human. As for the experimental part: (§1) For gene expression studies, U266 and XG1 cells were incubated in complete culture medium with a final concentration of 1.0 μM 5-azacytidine (Sigma). After 4 days, drug-treated and untreated cells were harvested and subjected to RNA extraction. In order to assess the sensitivity to AG490, cell lines K562, U266 and XG1 were incubated with or without a final concentration of 50 μM AG490 for 4 days prior to analysis. For STAT3 phosphorylation analysis, cell lines U266 and XG1 were initially starved for 16 hr in culture medium supplemented with only 1% FCS and no cytokine. Cells were then washed in cold PBS and resuspended in their appropriate complete medium with or without 50 μM AG490 and samples were harvested for protein analysis after 1 hr and 24 hr.
Total RNA was isolated using a commercially available kit (Qiagen) according to the manufacturer's instructions. Approximately 3 μg RNA per sample were reverse transcribed with SuperScript™ reverse transcriptase (Invitrogen). For PCR, 1 μl of the cDNA preparation was amplified using the following SOCS-1 primers: […]
Reactions were hot-started at 95° C. for 5 min and held at 80° C. before addition of 1.25 U of Taq polymerase (Invitrogen Corp.). […]

Data set [1] has as its system patients with AML and myelodysplastic syndrome. As to conditions: cited from earlier work.
The test system of data set [2] is STAT3. Description: Western blot analysis of STAT3 tyrosine phosphorylation in HCC cell lines treated with AG490. As to conditions: 25 μM AG490 for 3 hr or 24 hr. It counts as cell-based, human. How it is done: Cells at approximately 70% confluence were harvested and lysed on ice in a buffer containing 20 mM Tris (pH 8.0), 1% NONIDET P-40 detergent, 0.1% SDS, 150 mM NaCl, 50 mM NaF, 1 mM Na3VO4, 10 μg/ml leupeptin, 10 μg/ml aprotinin, 1 μg/ml pepstatin, and 1 mM phenylmethylsulfonyl fluoride. Following incubation for 30 min on ice, the lysates were cleared of debris by centrifugation at 15,000×g for 30 min. Eight hundred μg of protein lysates were incubated with 5 μg anti-JAK2 antibody (Upstate Biotechnology; Waltham Mass.) for 1 hr on ice. Thirty μl protein A+G (Oncogene Research Products; Boston Mass.) was added to the lysates and incubated for 1 hr at 4° C. with rotation.
Immune complexes were recovered by centrifugation, washed 5 times with the lysis buffer, then boiled for 5 min in SDS-PAGE sample buffer. The samples were resolved by SDS-PAGE, and electroblotted onto a nitrocellulose membrane. The blot was blocked with 5% skim milk in PBS for 1 hr at room temperature (RT), then incubated with 1 μg/ml of anti-phosphotyrosine antibody (4G10; Upstate biotechnology) over night at 4° C.
After several washes, a 1:5000 dilution of anti-mouse horseradish peroxidase-conjugated secondary antibody (Amersham Pharmacia Biotech) was added and incubated for 1 hr at RT. After several washes, the immunoreactive bands were visualized by an enhanced chemiluminescence substrate (Amersham Pharmacia Biotech) and exposed to HYPERFILM film (Amersham Pharmacia Biotech). The blot was stripped with a buffer composed of 62.5 mM Tris (pH 6.8), 2% SDS and 100 mM θ-mercaptoethanol at 50° C. for 30 min, washed, blocked with 5% milk in PBS, then re-probed with the anti-JAK2 antibody (Upstate Biotechnology).
To analyze inhibition of STAT3 by AG490, cells were treated with 25 μM AG490 for 3 hr or 24 hr. Eighty μg total protein samples from drug treated and untreated cells were separated by SDS-PAGE, and analyzed by western blot analysis. Anti-phospho-STAT3 antibody (New England Biolabs) was used to detect tyrosine phosphorylation of STAT3 according to the conditions recommended by the manufacturer. […]
(In general: In western blotting, separated proteins are transferred to a membrane and probed.)

The subject of data set [3] is HCC cells exhibiting methylation silenced SOCS-1 gene expression. Description: Colony formation assay with AG490. As to conditions: 5 μM AG490 for 3 weeks. Format: cell-based, human. As for the experimental part: For AG490 treatment, 1×10^4 cells were plated in 100 mm tissue culture dishes, and grown in complete medium in the absence or presence of 5 μM AG490 for 3 weeks. In some experiments, cells were treated with 25 μM AG490 for 3 hr or 24 hr.

The next data set deals with normal liver cells. Description: Effect of AG490 on normal liver cells. It counts as cell-based.
The subject of a further data set is K562 cells. In words: Flow cytometric analysis of apoptosis (annexin V binding, PI counterstaining). The following applies: 50 μM AG490, 96 hr; no SOCS-1 methylation. Format: cell-based, human. As for the experimental part: as §1
(§2) Apoptosis was assessed by annexin V binding and counterstaining with propidium iodide (PI) using a commercially available kit (Pharmingen) according to the manufacturer's instructions. Fluorescence analysis was performed on a BD LSR flow cytometer (Becton Dickinson).

For a further data set, the system named is U266 cells. Described as above. The following applies: 50 μM AG490, 96 hr; SOCS-1 hypermethylated. It counts as cell-based, human. How it is done: as §1, §2
A further data set deals with XG1 cells. The description is as above. As to conditions: 50 μM AG490, 96 hr; SOCS-1 hypermethylated. It counts as cell-based, human. How it is done: as §1, §2
The subject of data set [4] is STAT3. In words: Western blot analysis of STAT3 phosphorylation in MM cell lines. The following applies: 50 μM AG490, 1 hr and 24 hr. It counts as cell-based, human. How it is done:
as §1
Cell lysis and western blot analysis for STAT3 phosphorylation were performed as described in Example 1 (see, also, Yoshikawa et al., supra, 2001).

The test system of another data set is HL60. In words: Flow cytometric analysis of apoptosis in AML cell line. The following applies: 50 μM AG490, 96 hr; SOCS-1 not methylated. It counts as cell-based, human. How it is done:
(§3) HL60 cells were obtained from the American Type Culture Collection and KG1a cells from the German Collection of Microorganisms and Cell Cultures. Both cell lines were routinely cultured in IMDM (Invitrogen Corp.) with 20% FCS (Gemini Bio-Products). In order to assess the sensitivity to AG490, HL60 and KG1a cells were incubated with or without a final concentration of 50 μM AG490 (Sigma) for 96 hr prior to analysis.
(§4) The percentage of apoptotic cells was determined by annexin V-binding and counterstaining with propidium iodide (PI), and fluorescence analysis was performed as described in Example 2.
For orientation: Flow cytometry measures light scatter and fluorescence of single cells or particles in a stream.

The next data set has as its system KG1a. Described as above. Format: cell-based, human. The following applies: 50 μM AG490, 96 hr; SOCS-1 CpG island methylated. As for the experimental part:
as §3, §4

In the next data set the test system is STAT1. In words: Western blot analysis of STAT tyrosine phosphorylation in SOCS-1 methylated leukemia cells. It counts as cell-based, human. The following applies: cell line with SOCS-1 methylation, following treatment with AG490. As for the experimental part:
(§5) Western blot analysis was performed as described in Example 1. Blots were stained using anti-phospho-STAT1, anti-phospho-STAT3 or anti-phospho-STAT5 antibody (New England Biolabs) to detect tyrosine phosphorylation of STAT protein. After removing the antibody, the blot was analyzed using anti-STAT1, anti-STAT3 or anti-STAT5 antibody, respectively (BD Transduction Laboratories).

Data set [5] has as its system STAT3. The data set is described as above. It counts as cell-based, human. The following applies: cell line with SOCS-1 methylation, following treatment with AG490. How it is done: as §5
The next data set has as its system STAT5. Described as above. Format: cell-based, human. As to conditions: cell line with SOCS-1 methylation, following treatment with AG490. How it is done:
as §5

The subject of data set [6] is normal haematopoietic progenitor cells. As to conditions: at concentrations similar to those used in the present studies; cited from earlier work.
In data set [7] the test system is B cell leukemia cells, in which JAK2 was constitutively activated. As to conditions: cited from earlier work.
Data set [8] concerns STAT3. As to conditions: MM cell line XG2; cited from earlier work.
The next data set has as its system myeloma cells. The following applies: cited from earlier work.
The next data set deals with leukemic Sezary cells. The following applies: cited from earlier work.
In the next data set the test system is ALL. The following applies: cited from earlier work.

Entries after “also recorded” stand apart in the source; their conditions may differ. Where two headings read alike, the source gives them in different places.

As to `Nc1ncn([C@H]2C[C@H](O)[C@@H](CO)O2)c(=O)n1` [5-aza-2′-deoxycytidine], the SOCS-1 gene expression entry in the data set with SOCS-1 gene expression (U266 cells) and in the data set on SOCS-1 gene expression (XG1 cells) was “reactivation of SOCS-1 gene expression” throughout. Further, the clinical efficacy entry in [1] was “clinically effective”.
As to `N#C/C(=C/c1ccc(O)c(O)c1)C(=O)NCc1ccccc1` [AG490], the STAT3 phosphorylation entry is on record as “time dependent reduction in STAT3 phosphorylation” in the data set on STAT3 [2] (HuH-1 cells (SOCS-1 inactivated, JAK2 activated)); “time dependent reduction in STAT3 phosphorylation” with STAT3 [2] (SNU-387 cells (SOCS-1 inactivated, JAK2 activated)); “but not in the SOCS-1 expressing SNU-182 cells” with STAT3 [2] (SOCS-1 expressing SNU-182 cells); “inhibited STAT3 phosphorylation” with STAT3 [4] (U266 cells); “only minor effects” in the data set on STAT3 [4] (XG1 cells); “inhibition of STAT3 phosphorylation” in the data set on STAT3 [8]. For the same compound, the “growth suppression (number of colonies)” value in [3] was “effectively suppressed the growth”. Besides, in the data set with normal liver cells, the “effect on normal liver cells” value is reported as “no effect”. In addition, the apoptosis induction entry in the data set on K562 cells is on record as “only a small effect”; in the data set on U266 cells, “induced apoptosis”; in the data set with XG1 cells, “induced apoptosis”; with HL60 it was “no effect; also recorded: only weak induction of apoptosis”; in the data set with KG1a it was “induced apoptosis”; in the data set with myeloma cells it was “induces apoptosis”. In addition, the apoptosis induction entry with leukemic Sezary cells is given as “induces apoptosis”. The “tyrosine phosphorylation of STAT1” value with STAT1 is given as “decreased”. Also, the “tyrosine phosphorylation of STAT3” value in the data set with STAT3 [5] is recorded as “decreased”. Besides, the “tyrosine phosphorylation of STAT5” value in the data set on STAT5 is reported as “no change”. Besides, in [6], the “growth of normal haematopoietic progenitor cells” value was “does not suppress the growth”. Further, the “growth of B cell leukemia cells” value in [7] is listed as “suppress growth”. Further, the “effectiveness in the treatment of ALL” value with ALL is on record as “effectiveness”.
